Laboratory results reported in patent publication US20040127363A1, “Pesticidal compositions containing silicon compounds” (priority 2000, published 2004).

Test system: mites and insects
Assay: Pesticidal activity in a variety of application forms
Type: in vivo
Conditions: diluted aqueous solutions, emulsions with surfactant, or without any solvent
Method: The pesticidal activity was found both in diluted aqueous solutions and in emulsions together with suitable ionic, amphoteric or non-ionic surfactant, or without any solvent.
The pesticidal activity of the silicon esters of the present invention was tested against mites and insects.

Compound: CCCCO[Si](OCCCC)(OCCCC)OCCCC [tetrabutyl ortho silicate]
- pesticidal activity: high pesticidal activity
